Test results published in patent US12121596B2, “Near infrared fluorescent dyes, formulations and related methods” (Washington University, priority 2019, dated 2024).
Positions of bridges follow the written chain, without caps; N, C: chain ends. Non-standard residues stand in square brackets, D forms with d. Residues, ends and D or L forms follow the SMILES beside them. *: point of attachment. X1 = CC1(C)C(/C=C/C=C/C=C/C=C2/N(CCC(=O)*)c3ccc4ccccc4c3C2(C)C)=[N+](CCC(=O)[O-])c2ccc3ccccc3c21

Legend:
ANXA2 = ANXA2 (Homo sapiens, UniProt P07355); assay: Microscale thermophoresis (MST), ANXA2 binding; conditions: read-out: apparent Kd, ANXA2
Description: (§1) Recombinant proteins and antibodies. Recombinant annexin A2, annexin A2 with glutathione-S-transferase (GST) tag, annexin A1, and annexin A3 proteins were purchased from MyBioSource, Inc. (San Diego, CA, USA). Purified ANXA2 protein and purified pANXA2 protein were gifts from Dr. Gabriel Bimme (Beth Israel Deaconess Medical Center, Boston, MA). Rabbit monoclonal anti-annexin A2 antibody (D11G2, #8235), Rabbit monoclonal anti-Rab5 (C8B1, #3547), and rabbit monoclonal anti-Rab7 (D95F2, #936 7) primary antibodies were purchased from Cell Signaling Technology, Inc. (Danvers, MA, USA). Mouse monoclonal anti-β-actin 2A3 (sc-517582), mouse monoclonal anti-pANXA2 antibody (11.Tyr 24) (sc-135752), rabbit polyclonal anti-NOS2 (C-19, sc-649), rabbit polyclonal anti-ARG1 (H-52, sc-20150) antibodies, and protein A/G agarose were purchased from Santa Cruz Biotechnology, Inc. (Dallas, TX, USA). […]
(§2) MST was performed using the Monolith NT.115 (Nanotemper Technologies, Munich, Germany). […] Fluorescence was assessed in MST-2 buffer (50 mM Tris-HCl, pH 7.4; 150 mM NaCl; 10 mM MgCl2). […] The apparent Kd values were calculated from fragment concentration-dependent changes in normalized fluorescence (Fraction Bound) of LS301 after 5 seconds of thermophoresis based on mass action law using the MO Affinity Analysis v2.3 software.

[1] = system: lung (A549), breast (MDA-MB-231 and 4T1), and myeloid leukemia (HL60) cell lines; assay: Cellular uptake in cancer cell lines, live-cell imaging; assay type: cell-based; conditions: A549, MDA-MB-231, 4T1, HL60
Method: In general, cultured cancer cells were grown and incubated with the indicated amount of probe in Lab-Tek 8-chambered slides for the indicated time durations. Cells were washed with PBS at selected time points and underwent conventional slide preparation, ICC if indicated, and viewing under epifluorescence or confocal. For live-cell imaging of LS301, internalization at 37° C. in human dermal fibroblasts (Coriell Cell Technologies) and tumor cells including 4T1luc, MDA-MB-231, 5TGM, A549, and HL60 (ATCC) cells were cultured in appropriate media supplemented with 10% […] and penicillin/streptomycin and incubated at 37° C. in 5% CO2 incubator. The cells were grown on Lab-Tek 8-chamber slides (Nunc Inc. Rochester, NY) in the culture medium overnight before the experiment. The compounds were dissolved in 20% DMSO in […] PBS (pH 7.4) (Sigma, St. Louis, MO) for stocking solution and mixed with culture medium to reach the final concentration. Cells were incubated with 1 μM compounds in chamber slides at different time points at 37° C. After LS301 treatment, the culture media was removed and followed by adding culture media containing SYTO 13 nuclear dye from (Thermo Fisher Scientific, Waltham, MA) for 45 minutes at 37° C. For assessing cellular colocalization of LS301 with lipid rafts, the Vybrant AlexaFluor 488 Lipid Raft Labeling Kit (Thermo Fisher Scientific, Waltham, MA, USA) was used per the manufacturer's instructions. […]. LS301 and AlexaFluor 488 fluorescence were imaged using the cypate filter set (Ex/Em 750-800 nm/818-873 nm) and fluorescein isothiocyanate (FITC) filter set (Ex/Em 460-500/510-560 nm), respectively.

[2] = Microscale thermophoresis (MST), calcium binding; conditions: read-out: apparent dissociation constant (Kd), calcium
Description: Microscale thermophoresis (MST) studies biomolecular interactions in an aqueous environment without immobilization. MST exploits the directed movement of molecules along a microscopic temperature gradient. The movement rate and direction of movement depend on the species' size, charge, and solvation shell under study. Changes in this environment can change the thermophoretic movement of the species. MST can distinguish very small changes that occur, for example, when a small fluorescent molecule binds to the surface of a protein.
MST was performed using the Monolith NT.115 (Nanotemper Technologies, Munich, Germany). The appropriate agent(s) and LS301 stock samples were denatured in MST-1 buffer (50 mM Tris-HCl, pH 7.4; 150 mM NaCl; 10 mM MgCl2; 2% DMSO; 0.1% Tween-20; 4% SDS, 4 mM dithiothreitol (DTT)) at 97° C. for 10 min. Fluorescence was assessed in MST-2 buffer (50 mM Tris-HCl, pH 7.4; 150 mM NaCl; 10 mM MgCl2). The protein was prepared in MST-2 buffer, and 20 μL serial dilutions were made with protein concentration ranging from 3.05 pM to 50 nM (pANXA2) or 3.81 pM to 62.5 nM (ANXA2). All samples were loaded into NT.115 standard capillaries. […] The apparent Kd values were calculated from fragment concentration-dependent changes in normalized fluorescence (Fraction Bound) of LS301 after 5 seconds of thermophoresis based on mass action law using the MO Affinity Analysis v2.3 software.

ANXA3 = biological target: T1, ANXA3 (Homo sapiens, UniProt P12429); assay: Microscale thermophoresis (MST), ANXA3 binding; conditions: read-out: apparent Kd, ANXA3
T1 construct: purchased MyBioSource, Inc
T1 sequence (P12429 1-323): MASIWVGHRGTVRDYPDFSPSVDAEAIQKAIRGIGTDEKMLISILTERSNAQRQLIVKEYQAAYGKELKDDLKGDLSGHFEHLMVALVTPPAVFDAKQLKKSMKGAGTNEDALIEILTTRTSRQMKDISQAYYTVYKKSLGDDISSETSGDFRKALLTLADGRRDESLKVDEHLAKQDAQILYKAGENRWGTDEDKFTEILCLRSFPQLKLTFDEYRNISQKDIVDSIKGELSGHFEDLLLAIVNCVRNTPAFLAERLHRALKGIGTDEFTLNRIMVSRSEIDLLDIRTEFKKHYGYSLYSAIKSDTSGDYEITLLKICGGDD
Description: as §1, §2

Chain of ANXA2 (P07355 whole entry): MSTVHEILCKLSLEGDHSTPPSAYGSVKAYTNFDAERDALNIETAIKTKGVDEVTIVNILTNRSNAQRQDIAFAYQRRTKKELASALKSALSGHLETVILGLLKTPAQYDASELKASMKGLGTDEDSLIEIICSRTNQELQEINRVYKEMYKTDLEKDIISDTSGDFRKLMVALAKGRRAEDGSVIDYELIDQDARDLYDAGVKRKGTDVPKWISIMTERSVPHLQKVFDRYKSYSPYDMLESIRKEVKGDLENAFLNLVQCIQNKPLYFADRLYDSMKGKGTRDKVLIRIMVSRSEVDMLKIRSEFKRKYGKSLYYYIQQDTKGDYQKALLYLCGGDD

CC1(C)C(/C=C/C=C/C=C/C=C2/N(CCC(=O)N[C@@H]3CSSC[C@@H](C(=O)N[C@@H](CCCCN)C(=O)O)NC(=O)[C@@H]4CCCN4C(=O)[C@H](CO)NC(=O)[C@H](CC(=O)O)NC(=O)[C@H](CCCNC(=N)N)NC(=O)CNC3=O)c3ccc4ccccc4c3C2(C)C)=[N+](CCC(=O)[O-])c2ccc3ccccc3c21 [LS301, cypate-cyclic (DCys-Gly-Arg-Asp-Ser-Pro-Cys)-Lys-OH] (X1-[dC]GRDSPCK-OH; disulfide 1-7)
Kd (ANXA2): 0.389 ± 0.015 nM | time over which maximum cellular uptake is maintained [1]: over 24 hours | time to maximum concentration of cellular uptake [1]: 12 h | Kd [2]: 5.67 ± 2.4 nM | Kd (ANXA3): 6.13 ± 0.28 nM
